Earlier results, collected in publication PMC11714206, “Massively Parallel Screening of Toll/Interleukin‐1 Receptor (TIR)‐Derived Peptides Reveals Multiple Toll‐Like Receptors (TLRs)‐Targeting Immunomodulatory Peptides” (Advanced Science, 2024).

What was measured:
[1] = system: polymicrobial sepsis model; set-up: method as in PMID 18305095; conditions: administration 3 h before or 6 h after CLP surgery; cited from earlier work
Description: (§1) Treatment of macrophage cells with synthetic TDIPs containing a cell‐penetrating moiety suppressed TLR4‐dependent inflammatory pathways in a dose‐dependent manner. Moreover, the selected TDIPs exerted broad‐spectrum TLR‐inhibitory effects by inhibiting interactions between TIR domain‐containing proteins, which enhanced the therapeutic efficacy in the murine sepsis model. Although we applied TDIP simultaneously with LPS, the timing of TLR inhibitor administration remains a critical consideration. ...

[2] = set-up: method as in PMID 19661804; conditions: possibly due to late administration; cited from earlier work
Description: as §1

| SMILES | survival in polymicrobial sepsis model [1] | outcome in clinical trials [2] |
| --- | --- | --- |
| CCN(CC)CCCC(C)Nc1ccnc2cc(Cl)ccc12 (centres unmarked) [chloroquine] | markedly improved survival | – |
| CCCCCC/C=C\CCCCCCCCCC(=O)N[C@H]1[C@H](OC[C@H]2O[C@H](OP(=O)(O)O)[C@H](NC(=O)CC(=O)CCCCCCCCCCC)[C@@H](OCCCCCCCCCC)[C@@H]2O)O[C@H](COC)[C@@H](OP(=O)(O)O)[C@@H]1OCC[C@@H](CCCCCCC)OC [Eritoran tetrasodium] | – | failed in clinical trials |
